In US20240050577A1, “CDK INHIBITORS AND PHARMACEUTICAL USES THEREOF” (RISEN (SUZHOU) PHARMA TECH CO., LTD., priority 2022, published 2024):

Experiments:
Format in all cases: cell-based
CDK1 protein = target: T1, CDK1 protein (Homo sapiens, UniProt P06493); experiment: CDK1 protein degradation in OVCAR3 cells (Western blot); settings: 24 h; for DC50: read-out: DC50 CDK1 (half-maximum degradation concentration); for percent CDK1 protein degradation at 0.05 µM: OVCAR-3, 50 nM test compound, read-out: level of CDK1 protein degradation
T1 construct: host or cells: OVCAR3
Method: (§1) OVCAR3 (Cobioer, CBP60294) cell line of exponential growth phase was inoculated on a 6-well cell culture plate (Corning, 3516) according to 3E5/well scheme; and the plate was incubated overnight in a 5%-carbon dioxide incubator at 37° C. The next day, the test compound was dissolved in DMSO (Sigma, RNBF5902) to prepare a 10-mM concentration stock solution. The stock solution was diluted with complete medium, giving working solutions of different concentrations. Working solution was added into the corresponding wells of the orifice plate. The plate was placed in a 5% carbon dioxide incubator, set at 37° C., and incubated for 24 h. The plate was removed from the incubator, and the cells were washed twice with precooled PBS (Gibco, 14190250), followed by addition of 40 μL RIPA lysis buffer (containing protease inhibitor (Invitrogen™, AM2696)) to each well. Adherent cells were scraped off with a cell scraper, and the cell lysate was transferred to a 1.5 mL centrifuge tube, and the tube was placed on ice for 30 minutes. After completion of cell lysis, the tube was centrifugated for 10 min at 4° C., 14000 rpm. The supernatant was transferred into a new 1.5-mL centrifuge tube, and the new tube was placed on ice, followed by measurement of the protein concentration with BCA protein detection kit (Thermo Fisher, 23225). A mixture of cell lysate (40 μL) and loading buffer (10 μL, 5×SDS (Beyotime, P0015L)) was placed into a water bath at 95° C. for 10 min to denature the protein. The denatured protein sample, 30 μL/well, was added into a corresponding well of 4-20% Bis-Tris gel (Kingsley, M00657). The initial voltage was adjusted to 80-V and run for 30 min, followed by voltage increased to 120 V, and run for another 40 min, until the strip had run to the appropriate position. After electrophoresis, iBlot2 (Life Technologies, IB21001) was used to transfer the film under the condition of 20 V and 7 min. At the end of film transfer, 5% skimmed milk powder was sealed at room temperature for 2 h, and then TBST (Thermo Scientific, 28360) buffer solution was used to rinse for three times, 10 minutes each time. Skimmed milk powder (5%) was diluted with the first antibody in the appropriate proportion, and the working solution of the first antibody was prepared and incubated overnight at 4° C. After the incubation of the first antibody, the membrane was washed three times at room temperature with TBST buffer solution, 10 minutes each time; and the second antibody was incubated with 5% skimmed milk powder at room temperature for 1 h. After washing the film for three times with TBST, ECL color developing solution (Thermofisher 34095) was added, and an image was taken on a Biorad Chemi Doc gel imager. The band gray value was analyzed (Image Lab).
(§2) Symbols of “−”, “+”, “++”, and “+++” indicate that the degradation level of CDK protein induced by test compound was 10% or less, 11 to 30%, 31 to 60%, and greater than 60%, respectively.
(§3) Half-maximum degradation concentrations (DC50s) of test compounds were calculated using GraphPad Prism and their values are shown in Table 4. Symbols of “++++”, “+++”, “++”, “+” and “−” represent DC50s equal or less than 10 nM, 11-50 nM, 51-100 nM, 101-200 nM, and >200 nM, respectively.

CDK2 protein = target: T2, CDK2 protein (Homo sapiens, UniProt P24941); experiment: CDK2 protein degradation in OVCAR3 cells (Western blot); settings: 24 h; for level of CDK2 protein degradation: 50 nM test compound; for DC50: read-out: DC50 CDK2 (half-maximum degradation concentration)
T2 construct: host or cells: OVCAR3
Method: as §1, §2, §3

CDK4 protein = target: T3, CDK4 protein (Homo sapiens, UniProt P11802); experiment: CDK4 protein degradation in OVCAR3 cells (Western blot); settings: 24 h; for DC50: read-out: DC50 CDK4 (half-maximum degradation concentration); for percent CDK4 protein degradation at 0.05 µM: OVCAR-3, 50 nM test compound, read-out: level of CDK4 protein degradation
T3 construct: host or cells: OVCAR3
Method: as §1, §2, §3

CDK6 protein = target: T4, CDK6 protein (Homo sapiens, UniProt Q00534); experiment: CDK6 protein degradation in OVCAR3 cells (Western blot); settings: 24 h; for DC50: read-out: DC50 CDK6 (half-maximum degradation concentration); for percent CDK6 protein degradation at 0.05 µM: OVCAR-3, 50 nM test compound, read-out: level of CDK6 protein degradation
T4 construct: host or cells: OVCAR3
Method: as §1, §2, §3

OVCAR3 cells = experiment: Cell proliferation study (Cell Titer Glo, 72 h); settings: Homo sapiens, OVCAR-3, luminescence, read-out: IC50, inhibitory effect on cellular proliferation
Method: OVCAR3 (Cobioer, CBP60294) cell line in logarithmic growth phase was used for these experiments. The cell density was adjusted to 1.1×10^4/mL and the cells were inoculated into a 96-well cell culture plate (Corning, 3599), 95 μL per well (the number of cells per well was 1×10^3). The culture plate was placed in an incubator, with 5% carbon dioxide, at 37° C. and incubated overnight. On the next day, a 10 mM stock solution of test compound was prepared in DMSO (Sigma, RNBF5902). After gradient dilution, a series of working solutions with different concentrations of test compound was prepared using complete medium. Working solution was added into the corresponding wells of the orifice plate, and the plate was placed in a 5% carbon dioxide incubator and cultivated at 37° C. for 72 h, and then removed from the incubator. To each well was added 50 μL Cell Tier Glo (Promega, G7573), and the plate was incubated at room temperature for 10 min, followed by luminescence detection with an enzyme marker. The inhibition curve was obtained with GraphPad 7.0 software using four-parameter equation.

T4 sequence (Q00534 whole entry): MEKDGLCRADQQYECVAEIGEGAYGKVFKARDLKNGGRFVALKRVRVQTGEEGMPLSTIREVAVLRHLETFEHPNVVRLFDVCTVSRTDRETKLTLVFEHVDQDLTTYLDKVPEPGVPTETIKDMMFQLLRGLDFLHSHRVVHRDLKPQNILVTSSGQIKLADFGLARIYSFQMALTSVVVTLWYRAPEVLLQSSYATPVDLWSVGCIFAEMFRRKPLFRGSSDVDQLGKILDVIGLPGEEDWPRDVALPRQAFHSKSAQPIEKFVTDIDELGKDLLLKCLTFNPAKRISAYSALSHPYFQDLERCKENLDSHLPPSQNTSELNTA
T1 sequence (P06493 whole entry): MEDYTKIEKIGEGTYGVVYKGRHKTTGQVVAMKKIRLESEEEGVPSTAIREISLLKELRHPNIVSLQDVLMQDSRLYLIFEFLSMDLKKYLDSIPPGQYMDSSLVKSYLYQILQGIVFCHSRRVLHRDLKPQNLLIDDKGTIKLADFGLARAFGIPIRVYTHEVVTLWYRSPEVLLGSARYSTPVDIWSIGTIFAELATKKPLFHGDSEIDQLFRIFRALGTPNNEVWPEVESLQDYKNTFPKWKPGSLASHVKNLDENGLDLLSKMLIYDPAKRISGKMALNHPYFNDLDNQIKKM
T3 sequence (P11802 whole entry): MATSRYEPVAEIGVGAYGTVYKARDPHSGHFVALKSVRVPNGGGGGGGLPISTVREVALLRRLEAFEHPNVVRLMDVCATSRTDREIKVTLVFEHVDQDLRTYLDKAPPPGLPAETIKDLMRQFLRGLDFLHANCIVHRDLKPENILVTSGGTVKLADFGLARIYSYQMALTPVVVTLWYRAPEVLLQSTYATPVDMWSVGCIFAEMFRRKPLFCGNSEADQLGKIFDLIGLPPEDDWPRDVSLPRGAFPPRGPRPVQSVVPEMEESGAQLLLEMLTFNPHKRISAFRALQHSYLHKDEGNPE

SMILES	IC50 (OVCAR3 cells)	also measured
C[C@@]1(O)CCC[C@H]1n1c(=O)ccc2cnc(NC3CCN(S(=O)(=O)C4CCN(C5CC6(CCN(c7cc8c(cc7F)C(=O)N(C7CCC(=O)NC7=O)C8=O)CC6)C5)CC4)CC3)nc21 (some centres unmarked) [Compound 94]	1 to 5 µM	DC50 (CDK1 protein): < 0.01 µM; percent CDK1 protein degradation at 0.05 µM (CDK1 protein): > 60%; level of CDK2 protein degradation (CDK2 protein): +++ (greater than 60%); DC50 (CDK2 protein): < 0.01 µM; DC50 (CDK4 protein): > 0.2 µM; percent CDK4 protein degradation at 0.05 µM (CDK4 protein): 11 to 30%; DC50 (CDK6 protein): > 0.2 µM; percent CDK6 protein degradation at 0.05 µM (CDK6 protein): > 60%
Cc1nc2c(F)cc(-c3nc(NC4CCN(S(=O)(=O)C5CCN(CC6CCN(C7CN(c8cc9c(cc8F)C(=O)N(C8CCC(=O)NC8=O)C9=O)C7)CC6)CC5)CC4)ncc3F)cc2n1C(C)C (centres unmarked) [Compound 80]	< 0.1 µM	DC50 (CDK1 protein): > 0.2 µM; percent CDK1 protein degradation at 0.05 µM (CDK1 protein): ≤ 10%; level of CDK2 protein degradation (CDK2 protein): ++ (31 to 60%); DC50 (CDK2 protein): > 0.2 µM; DC50 (CDK4 protein): > 0.2 µM; percent CDK4 protein degradation at 0.05 µM (CDK4 protein): ≤ 10%; DC50 (CDK6 protein): < 0.01 µM; percent CDK6 protein degradation at 0.05 µM (CDK6 protein): > 60%
CC(C)N1CCOc2c(F)cc(-c3nc(NC4CCN(S(=O)(=O)C5CCN(C6CC7(CCN(c8cc9c(cc8F)C(=O)N(C8CCC(=O)NC8=O)C9=O)CC7)C6)CC5)CC4)ncc3F)cc21 (centres unmarked) [Compound 51]	> 10 µM	
Cc1nc2c(F)cc(-c3nc(NC4CCN(S(=O)(=O)C5CCN(C6CC7(CCN(c8cc9c(cc8F)C(=O)N(C8CCC(=O)NC8=O)C9=O)CC7)C6)CC5)CC4)ncc3F)cc2n1C(C)C (centres unmarked) [Compound 75]	1 to 5 µM	
Cc1nc2c(F)cc(-c3nc(Nc4ccc(S(=O)(=O)NCCOCc5cn(CCOCCOCCNc6cccc7c6C(=O)N(C6CCC(=O)NC6=O)C7=O)nn5)cc4)ncc3F)cc2n1C(C)C (centres unmarked) [Compound 50]	1 to 5 µM	
Cc1nc2c(F)cc(-c3nc(NC4CCN(S(=O)(=O)C5CN(CC6CN(c7cc8c(cc7F)C(=O)N(C7CCC(=O)NC7=O)C8=O)C6)C5)CC4)ncc3F)cc2n1C(C)C (centres unmarked) [Compound 109]	1 to 5 µM	
Cc1nc2c(F)cc(-c3nc(NC4CCN(S(=O)(=O)C5CCN(CC6CC7CCC(C6)N7C6CN(c7cc8c(cc7F)C(=O)N(C7CCC(=O)NC7=O)C8=O)C6)CC5)CC4)ncc3F)cc2n1C(C)C (centres unmarked) [Compound 101]	< 0.1 µM	
Cc1nc2c(F)cc(-c3nc(NC4CCN(S(=O)(=O)C5CCN(CC6CCN(c7cc8c(cc7F)C(=O)N(C7CCC(=O)NC7=O)C8=O)CC6)CC5)CC4)ncc3F)cc2n1C(C)C (centres unmarked) [Compound 71]	< 0.1 µM	
Cc1nc2c(F)cc(-c3nc(Nc4ccc(S(=O)(=O)NCCOCCOCCNc5cccc6c5C(=O)N(C5CCC(=O)NC5=O)C6=O)cc4)ncc3F)cc2n1C(C)C (centres unmarked) [Compound 49]	1 to 5 µM	
CC(C)N1CCOc2c(F)cc(-c3nc(Nc4ccc(C5CCN(CCOCCOCCOCCNc6cccc7c6C(=O)N(C6CCC(=O)NC6=O)C7=O)CC5)cn4)ncc3F)cc21 (centres unmarked) [Compound 6]	1 to 5 µM	
CC(C)N1CCOc2c(F)cc(-c3nc(Nc4ccc(C5CCN(C6CC7(CCN(c8cc9c(cc8F)C(=O)N(C8CCC(=O)NC8=O)C9=O)CC7)C6)CC5)cn4)ncc3F)cc21 (centres unmarked) [Compound 18, 2-(2,6-dioxo-3-piperidyl)-5-fluoro-6-[2-[4-[6-[[5-fluoro-4-(8-fluoro-4-isopropyl-2,3-dihydro-1,4-benzoxazin-6-yl)pyrimidin-2-yl]amino]-3-pyridyl]-1-piperidyl]-7-azaspiro[3.5]nonan-7-yl]isoindoline-1,3-dione]	> 10 µM	
C[C@@]1(O)CCC[C@H]1n1c(=O)ccc2cnc(NC3CCN(S(=O)(=O)C4CCN(C(=O)C56CC(NCC7CCN(c8cc9c(cc8F)C(=O)N(C8CCC(=O)NC8=O)C9=O)CC7)(C5)C6)CC4)CC3)nc21 (some centres unmarked) [Compound 36]	0.101 to 1 µM	
CC(C)N1CCOc2c(F)cc(-c3nc(Nc4ccc(S(=O)(=O)NCCOCc5cn(CCOCCOCCNc6cc7c(cc6F)C(=O)N(C6CCC(=O)NC6=O)C7=O)nn5)cc4)ncc3F)cc21 (centres unmarked) [Compound 21, N-[2-[[1-[2-[2-[2-[[2-(2,6-dioxo-3-piperidyl)-6-fluoro-1,3-dioxo-isoindolin-5-yl]amino]ethoxy]ethoxy]ethyl]triazol-4-yl]methoxy]ethyl]-4-[[5-fluoro-4-(8-fluoro-4-isopropyl-2,3-dihydro-1,4-benzoxazin-6-yl)pyrimidin-2-yl]amino]benzenesulfonamide]	1 to 5 µM	
Cc1nc2c(F)cc(-c3nc(Nc4ccc(S(=O)(=O)N5CCC6(CCN(CC7CCN(c8cc9c(cc8F)C(=O)N(C8CCC(=O)NC8=O)C9=O)CC7)CC6)CC5)cc4)ncc3F)cc2n1C(C)C (centres unmarked) [Compound 106]	1 to 5 µM	

Continued, in another order:

IC50 (OVCAR3 cells)	SMILES	also measured
> 10 µM	C[C@@]1(O)CCC[C@H]1n1c(=O)ccc2cnc(Nc3ccc(S(=O)(=O)C4CCN(C5CC6(C5)CN(c5cc7c(cc5F)C(=O)N(C5CCC(=O)NC5=O)C7=O)C6)CC4)cc3)nc21 (some centres unmarked) [Compound 76]	
> 10 µM	C[C@@]1(O)CCC[C@H]1n1c(=O)ccc2cnc(NC3CCN(S(=O)(=O)C4CCN(C5CC(C6CCN(c7cc8c(cc7F)C(=O)N(C7CCC(=O)NC7=O)C8=O)CC6)C5)CC4)CC3)nc21 (some centres unmarked) [Compound 96]	
0.101 to 1 µM	C[C@@]1(O)CCC[C@H]1n1c(=O)ccc2cnc(NC3CCN(S(=O)(=O)C4CCN(CC5CCC6(CC5)CCN(c5cc7c(cc5F)C(=O)N(C5CCC(=O)NC5=O)C7=O)CC6)CC4)CC3)nc21 (some centres unmarked) [Compound 90]	
0.101 to 1 µM	Cc1nc2c(F)cc(-c3nc(Nc4ccc(S(=O)(=O)C5CCN(C6CC7(CCN(c8cc9c(cc8F)C(=O)N(C8CCC(=O)NC8=O)C9=O)CC7)C6)CC5)cc4)ncc3F)cc2n1C(C)C (centres unmarked) [Compound 46]	
0.101 to 1 µM	C[C@@]1(O)CCC[C@H]1n1c(=O)ccc2cnc(NC3CCN(S(=O)(=O)C4CCN(CC5CC6(CCN(c7cc8c(cc7F)C(=O)N(C7CCC(=O)NC7=O)C8=O)CC6)C5)CC4)CC3)nc21 (some centres unmarked) [Compound 82]	
1 to 5 µM	C[C@@]1(O)CCC[C@H]1n1c(=O)ccc2cnc(Nc3ccc(S(=O)(=O)C4CCN(C5CN(C6CCN(c7cc8c(cc7F)C(=O)N(C7CCC(=O)NC7=O)C8=O)CC6)C5)CC4)cc3)nc21 (some centres unmarked) [Compound 59]	
> 10 µM	C[C@@]1(O)CCC[C@H]1n1c(=O)ccc2cnc(Nc3ccc(S(=O)(=O)C4CCN(CC5CCN(c6cc7c(cc6F)C(=O)N(C6CCC(=O)NC6=O)C7=O)CC5)CC4)cc3)nc21 (some centres unmarked) [Compound 23]	
0.101 to 1 µM	C[C@@]1(O)CCC[C@H]1n1c(=O)ccc2cnc(NC3CCN(S(=O)(=O)C4CCN(C5CC6(CCN(c7cccc8c7C(=O)N(C7CCC(=O)NC7=O)C8=O)CC6)C5)CC4)CC3)nc21 (some centres unmarked) [Compound 107]	
